In patent publication US9265741B2, “Molecules to perfect HbA1c levels” (Neville Pharmaceutical, Inc., priority 2011, dated 2016):

Key:
[1] = Safety test in human volunteers; assay type: in vivo; settings: clinically prescribed doses
Source text: Methyl pyruvate performs as a lipophilic antisense-like bullet that penetrates cell membranes, mitochondrial membranes and nuclear membranes with its active and passive delivery of energy via protons, adenosine triphosphate manufacture (ATP) and methylation. This energy delivering metabolic bullet upregulates all cytosolic and nuclear capabilities. It can even negate messenger RNA (mRNA) expression. Now, because of instant protons and pyruvate delivered, there is immediately empowered glycolysis and/or CAC production of ATP and the cell functions with more efficient performance. Through this newly available energy, gene silencing can be reversed, repairs completed, apoptosis performed, and the cell is upgraded and/or divides (cell partitioning) into a new and improved cell having shed its prior oxidative cellular/genetic debris. In DM this means improved Glut4 networking, improved insulin sensitivity, increased intra and intercellular networking and increased superoxide dismutase (SOD) production. Further, due to MP, many nutrients and complicit molecules including peroxisome proliferator-activator receptor (Ppars) will now function more effectively and efficiently, i.e. as infused and increased cellular energy can now affect niacinamide (B3) and nicotinamide adenine dinucleotide (NAD) at an intracellular level that enables and protects beta cell function. […]

HbA1c = test: Twelve patients with DM took MP for three months; HbA1c measured; assay type: in vivo, human
Source text: Twelve patients with DM, including a juvenile diabetic, took two (2) grams of MP in water two (2) times per day for three (3) months without any other lifestyle change. The average decrease of HbA1c was one percent (1%). (The group average HbA1c diminished from 7.5% to 6.5% during the course of three (3) months of treatment.)

[2] = system: pancreatic rat islet cells; test: MP instilled into pancreatic rat islet cells; insulin manufacture; assay type: cell-based; settings: pancreatic rat islet cells (animal model), several studies
Source text: The methyl pyruvate molecule and certain of these molecular analogues are lipophilic antisense-like permeants, each of which holds onto its own membrane penetrability as well as acting collectively to produce a timed release delivery within the inner mitochondria. The combinational synergy can be different than each effect individually. […] This up regulation is key for enhanced utilization and regulation of glucose transport. MP closes potassium channels and opens calcium channels (via aquaporin generation) allowing a more favorable cellular milieu (increases cytosolic pH) that increases CAC productivity via our delivered MP (as pyruvate), as well as the now utilizable glucose. The use of MP and/or EP as energy molecules allows gene silenced and disabled near-apoptotic cells to proceed logically/genomically to a more idealized homeostatic state for the organism. The invention represents a method for genomic self-regulation of HbA1c.
MP instilled into pancreatic rat islet cells enable upregulation of insulin manufacture six-fold in several studies. The measured Jurkat current is countered and neutralized by MP's proton impedance enhancing its later provocation in increased insulin manufacture.

Compound | safety in human volunteers [1] | average decrease of HbA1c (HbA1c; 2 grams of MP in water 2 times per day for 3 months, no other lifestyle change) [%] | group average HbA1c after treatment (HbA1c; after 3 months of 2 grams of MP in water 2 times per day) [%] | group average HbA1c before treatment (HbA1c; start of treatment (baseline)) [%] | upregulation of insulin manufacture [2]
CCOC(=O)C(C)=O [EP, ethyl pyruvate] | safe | – | – | – | –
COC(=O)C(C)=O [MP, methyl pyruvate] | safe | 1 | 6.5 | 7.5 | six-fold
